In DBAASP one finds MIC data, which are given here for eight compounds.

Among the test systems are Escherichia coli BW25113; Escherichia coli J2210; Escherichia coli JJ2489; Escherichia coli JW0013; Escherichia coli MC1041.
What all share (test): ≥ marks a high value that may be exact or a test limit, other limits are often not marked, values filed in µg/mL are converted to µM
The subject of test [1] is Candida albicans NCPF 1467.
The test system of test [2] is Escherichia coli NCTC 10418.
Test [3] concerns Staphylococcus aureus NCTC 10788.
Test [4] has as its system Escherichia coli ATCC 25922.
Test [5] concerns Klebsiella pneumoniae ATCC 13883.
Test [6] concerns Pseudomonas aeruginosa PAO1.
The subject of test [7] is Staphylococcus aureus JE2.
Test [8] has as its system Candida albicans ATCC 10231.
Test [9] deals with Cryptococcus neoformans ATCC 32045.
Test [10] concerns Escherichia coli ATCC 2592.
In test [11] the test system is Pseudomonas aeruginosa ATCC 10145.
Test [12] relates to Staphylococcus aureus ATCC 33591.
For test [13], the system named is Klebsiella pneumoniae E406-17.
Test [14] has as its system Pseudomonas aeruginosa E411-17.
In test [15] the test system is Staphylococcus aureus M838-17.
Test [16] has as its system Staphylococcus aureus USA 300 LAC.
Test [17] relates to Escherichia coli JW0368 ΔsbmA.
For test [18], the system named is Escherichia coli JW2778 ΔygdD.
Test [19] has as its system Salmonella enterica subsp. enterica serovar Enteritidis MH91989.
For test [20], the system named is Salmonella typhimurium SL1344.

Broadly, the MIC is the lowest concentration that inhibits growth of the organism. Read a high MIC as weaker potency.

Converted amounts (≈) assume the structure as drawn. Some results are limits rather than exact numbers.

For `CC[C@H](C)[C@H](NC(=O)[C@H](C)NC(=O)[C@H](Cc1cnc[nH]1)NC(=O)[C@@H]1CCCN1C(=O)[C@@H](NC(=O)[C@H](CC(C)C)NC(=O)[C@H](CO)NC(=O)[C@H](Cc1ccccc1)NC(=O)[C@H](CC(C)C)NC(=O)[C@@H](N)Cc1ccccc1)[C@@H](C)CC)C(=O)N[C@@H](CO)C(=O)NCC(=O)N[C@@H](CC(C)C)C(=O)N[C@H](C(=O)N[C@@H](CO)C(=O)N[C@@H](C)C(=O)N[C@@H](Cc1ccccc1)C(=O)N[C@H](C=O)CCCCN)[C@@H](C)CC` [FLFSLIPHAISGLISAFK], the MIC in test [1] was 16 µM (≈ 31.1 µg/mL); in test [2], at least 250 µM; in test [3] it was 8 µM (≈ 15.6 µg/mL).

For the compound `CC[C@H](C)[C@H](NC(=O)[C@H](C)NC(=O)[C@@H]1CCCN1C(=O)[C@H](CC(C)C)NC(=O)[C@@H](N)Cc1ccccc1)C(=O)N[C@@H](C)C(=O)NCC(=O)N[C@@H](CC(C)C)C(=O)N[C@@H](C)C(=O)N[C@@H](C)C(=O)N[C@@H](CCCCN)C(=O)N[C@@H](Cc1ccccc1)C(=O)N[C@@H](CC(C)C)C(=O)N1CCC[C@H]1C(=O)N[C@@H](CCCCN)C(=O)N[C@H](C(=O)N[C@@H](Cc1ccccc1)C(=O)N[C@H]1CSSC[C@@H](C(=O)O)NC(=O)[C@H](CCCCN)NC(=O)[C@H](CCCCN)NC(=O)[C@H]([C@@H](C)O)NC(=O)[C@H]([C@@H](C)CC)NC(=O)[C@H](C)NC1=O)[C@@H](C)CC` [FLPAIAGLAAKFLPKIFCAITKKC], the MIC in [1] stood at 3.12 µM (≈ 8 µg/mL); in test [2], 12.5 µM (≈ 32 µg/mL); in test [3], 3.12 µM (≈ 8 µg/mL).

Regarding `CC(C)C[C@H](NC(=O)[C@H](CC(C)C)NC(=O)[C@H](CCCCN)NC(=O)[C@H](CC(C)C)NC(=O)CNC(=O)[C@H](CC(C)C)NC(=O)[C@H](CCCCN)NC(=O)[C@H](CC(C)C)NC(=O)[C@H](CC(C)C)NC(=O)[C@H](CC(C)C)NC(=O)[C@H](CCCCN)NC(=O)[C@H](CC(C)C)NC(=O)[C@@H](N)CCCCN)C(N)=O` [KLKLLLKLGLKLL], the MIC was above 25 µM in test [4], 25 µM (≈ 37.3 µg/mL) in test [5], above 25 µM in test [6] and 1.56 µM (≈ 2.33 µg/mL) in test [7].

As to `CC(C)C[C@H](NC(=O)[C@H](CCCCN)NC(=O)[C@H](CCCCN)NC(=O)[C@H](CC(C)C)NC(=O)[C@H](CC(C)C)NC(=O)[C@H](CCCCN)NC(=O)[C@H](CCCCN)NC(=O)[C@H](CC(C)C)NC(=O)[C@H](CC(C)C)NC(=O)[C@H](CCCCN)NC(=O)[C@H](CCCCN)NC(=O)[C@H](CC(C)C)NC(=O)[C@H](CC(C)C)NC(=O)[C@H](CCCCN)NC(=O)[C@H](CCCCN)NC(=O)[C@H](CC(C)C)NC(=O)[C@H](CC(C)C)NC(=O)[C@H](CCCCN)NC(=O)[C@H](CCCCN)NC(=O)[C@H](CC(C)C)NC(=O)[C@H](CC(C)C)NC(=O)[C@H](CCCCN)NC(=O)[C@H](CCCCN)NC(=O)[C@@H](N)CC(C)C)C(=O)O` [LKKLLKKLLKKLLKKLLKKLLKKL], the MIC was 121 µM (≈ 354 µg/mL) in [8]; at least 42.9 µM in test [9]; 30.2 µM (≈ 88 µg/mL) in test [10]; 22.3 µM (≈ 65 µg/mL) in test [11]; at least 85.8 µM in [12].

Turning to `CC(C)C[C@H](NC(=O)[C@H](CCCCN)NC(=O)[C@H](CC(C)C)NC(=O)[C@H](CCCCN)NC(=O)[C@H](CC(C)C)NC(=O)[C@H](CCCCN)NC(=O)[C@H](CC(C)C)NC(=O)[C@H](CCCCN)NC(=O)[C@H](CC(C)C)NC(=O)[C@H](CCCCN)NC(=O)[C@H](CC(C)C)NC(=O)[C@H](CCCCN)NC(=O)[C@H](CC(C)C)NC(=O)[C@H](CCCCN)NC(=O)[C@H](CC(C)C)NC(=O)[C@H](CCCCN)NC(=O)[C@H](CC(C)C)NC(=O)[C@H](CCCCN)NC(=O)[C@H](CC(C)C)NC(=O)[C@H](CCCCN)NC(=O)[C@@H](N)CC(C)C)C(=O)N[C@@H](CCCCN)C(=O)O` [LKLKLKLKLKLKLKLKLKLKLK], the MIC in test [8] was 132 µM (≈ 354 µg/mL); in test [9], 16.7 µM (≈ 44.5 µg/mL); in test [10] it was at least 46.8 µM; in [11], 23.2 µM (≈ 62 µg/mL); in [12], at least 93.5 µM.

For `CC[C@H](C)[C@H](NC(=O)[C@H](CCCCN)NC(=O)[C@@H](N)CCCN=C(N)N)C(=O)N[C@@H](Cc1c[nH]c2ccccc12)C(=O)N[C@@H](Cc1c[nH]c2ccccc12)C(=O)N[C@@H](Cc1c[nH]c2ccccc12)C(=O)N[C@@H](Cc1c[nH]c2ccccc12)C(=O)N[C@@H](CC(C)C)C(N)=O` [RKIWWWWL], the MIC is 6.2 µM (≈ 7.89 µg/mL) in test [4]; 4.38 µM (≈ 5.58 µg/mL) in test [5]; 12.5 µM (≈ 15.9 µg/mL) in test [13]; at least 50 µM in [14]; 8.8 µM (≈ 11.2 µg/mL) in test [15]; 4.38 µM (≈ 5.58 µg/mL) in test [16].

As for `CC[C@H](C)[C@H](NC(=O)[C@H](CCCN=C(N)N)NC(=O)[C@@H](N)CCCN=C(N)N)C(=O)N[C@@H](CCCCN)C(=O)N[C@@H](CCCCN)C(=O)N[C@@H](CCCN=C(N)N)C(=O)N1CCC[C@H]1C(=O)N1CCC[C@H]1C(=O)N[C@@H](CCCN=C(N)N)C(=O)N[C@@H](CC(C)C)C(=O)N1CCC[C@H]1C(=O)N[C@@H](CCCN=C(N)N)C(=O)N1CCC[C@H]1C(=O)N[C@@H](CCCN=C(N)N)C(=O)N1CCC[C@H]1C(=O)N[C@@H](CCCN=C(N)N)C(=O)O` [RRIKKRPPRLPRPRPR], the MIC turned out to be 0.078 µM (≈ 0.162 µg/mL) in the test with Escherichia coli BW25113; 0.157 µM (≈ 0.326 µg/mL) against Escherichia coli J2210; 0.12 µM (≈ 0.25 µg/mL) with Escherichia coli JJ2489; 0.06 µM (≈ 0.125 µg/mL) against Escherichia coli JW0013; 0.06 µM (≈ 0.125 µg/mL) in test [17]; 0.12 µM (≈ 0.25 µg/mL) in [18]. Moreover, the figures for the MIC (in the test on Escherichia coli MC1041; in [19]; in test [20]) were 0.06 µM (≈ 0.125 µg/mL), 0.12 µM (≈ 0.25 µg/mL) and 0.12 µM (≈ 0.25 µg/mL), respectively.

As to `CC[C@H](C)[C@H](NC(=O)[C@H](CCCN=C(N)N)NC(=O)[C@@H](N)CCCN=C(N)N)C(=O)N[C@@H](CCCCN)C(=O)N1CCC[C@H]1C(=O)N[C@@H](CCCN=C(N)N)C(=O)N1CCC[C@H]1C(=O)N1CCC[C@H]1C(=O)N[C@@H](CCCN=C(N)N)C(=O)N[C@@H](CC(C)C)C(=O)N1CCC[C@H]1C(=O)N[C@@H](CCCN=C(N)N)C(=O)N1CCC[C@H]1C(=O)N[C@@H](CCCN=C(N)N)C(=O)N1CCC[C@H]1C(=O)N[C@@H](CCCCN)C(=O)O` [RRIKPRPPRLPRPRPK], the MIC was 0.06 µM (≈ 0.121 µg/mL) with Escherichia coli BW25113; 0.12 µM (≈ 0.242 µg/mL) against Escherichia coli J2210; 0.12 µM (≈ 0.242 µg/mL) against Escherichia coli JJ2489; 0.06 µM (≈ 0.121 µg/mL) against Escherichia coli JW0013; 0.06 µM (≈ 0.121 µg/mL) in [17]; 0.12 µM (≈ 0.242 µg/mL) in test [18]. The MIC in the test on Escherichia coli MC1041 came out at 0.06 µM (≈ 0.121 µg/mL); in test [19], 0.157 µM (≈ 0.317 µg/mL); in [20] it was 0.12 µM (≈ 0.242 µg/mL).
